# Literature values in patent US20050038005A1, “Method of intermittent administration of a pharmaceutical for the treatment of conditions associated with a female's menstrual cycle” (priority 2003, published 2005).
# Tests used:
# [1] = calcium supplementation; especially pain and water retention
# [2] = magnesium supplementation, oral
# [3] = intermittent administration for approximately fourteen days prior to the start of menses
# [4] = administration of fluoxetine
structure (smiles),measurement,setting,value
[Ca+2] [Calcium],alleviation of symptoms associated with PMS,[1],effective treatment for alleviating some of the symptoms associated with PMS
[Mg+2] [Magnesium],relief of symptoms of PMS,[2],"relieve some symptoms of PMS, particularly pain and mood fluctuations"
CNCCC(Oc1ccc(C(F)(F)F)cc1)c1ccccc1 (stereo not shown) [fluoxetine],efficacy in treating the symptoms of PMS,[3],efficacious in treating the symptoms of PMS
same,amelioration of symptoms of PMS/PMDD,[4],ameliorate the symptoms of PMS/PMDD
